The target in assay [1] is T1, IGF-1 receptor (Homo sapiens, UniProt P08069). Description: IGF-1 receptor competition binding assay (scintillation proximity). Also noted: expressed in transfected cells; plasma membrane fragments. (In general: Scintillation proximity formats need no separation of bound from free tracer.)
In assay [2] the target is T2, insulin receptor (Homo sapiens, UniProt P06213). Description: Insulin receptor competition binding assay (scintillation proximity). The arrangement: expressed in transfected cells; plasma membrane fragments.
For assay [3], the target named is T2, insulin receptor. The assay is described as follows: Insulin receptor phosphorylation assay in receptor transfected HEK293 cells. Type of assay: cell-based. The arrangement: expressed in transfected cells; host or cells: HEK293.
The target of assay [4] is T1, IGF-1 receptor. The assay is described as follows: IGF-1 receptor phosphorylation assay in receptor transfected HEK293 cells. The arrangement: expressed in transfected cells; host or cells: HEK293. It counts as cell-based.
Assay [5] addresses T3, type B insulin receptor (IR-B) (Homo sapiens, UniProt P06213).
T3 construct: expressed in transfected cells; host or cells: HEK293
The assay is described as follows: Receptor kinase activity (phosphorylation) assay, type B insulin receptor. Type of assay: cell-based. As to conditions: Table 17.

Assay [6] has as its target T4, type A insulin receptor (IR-A) (Homo sapiens, UniProt P06213).
T4 construct: expressed in transfected cells; host or cells: HEK293
Description: Receptor kinase activity (phosphorylation) assay, type A insulin receptor. Type of assay: cell-based.

The conditions of assay [7]: blood glucose lowering in mice.
Where [8] appears, read: Table 9, IGF-1 receptor versus insulin receptor.

“And” between values parts separate entries of the source, which are not always exact repeats. Equal entries are not always repeated. Where two headings read alike, the source gives them in different places. Square brackets hold non-standard residues; d marks the D form. Primed or numbered codes have the meaning given here. Ends that are not written are not given here. PEG4′ = PEG spacer of 4 units in the linker; PEG8′ = PEG spacer of 8 units in the linker

The source of these data is patent US9593156B2 (priority 2012, dated 2017).

T1 sequence (P08069 31-736 limits assumed): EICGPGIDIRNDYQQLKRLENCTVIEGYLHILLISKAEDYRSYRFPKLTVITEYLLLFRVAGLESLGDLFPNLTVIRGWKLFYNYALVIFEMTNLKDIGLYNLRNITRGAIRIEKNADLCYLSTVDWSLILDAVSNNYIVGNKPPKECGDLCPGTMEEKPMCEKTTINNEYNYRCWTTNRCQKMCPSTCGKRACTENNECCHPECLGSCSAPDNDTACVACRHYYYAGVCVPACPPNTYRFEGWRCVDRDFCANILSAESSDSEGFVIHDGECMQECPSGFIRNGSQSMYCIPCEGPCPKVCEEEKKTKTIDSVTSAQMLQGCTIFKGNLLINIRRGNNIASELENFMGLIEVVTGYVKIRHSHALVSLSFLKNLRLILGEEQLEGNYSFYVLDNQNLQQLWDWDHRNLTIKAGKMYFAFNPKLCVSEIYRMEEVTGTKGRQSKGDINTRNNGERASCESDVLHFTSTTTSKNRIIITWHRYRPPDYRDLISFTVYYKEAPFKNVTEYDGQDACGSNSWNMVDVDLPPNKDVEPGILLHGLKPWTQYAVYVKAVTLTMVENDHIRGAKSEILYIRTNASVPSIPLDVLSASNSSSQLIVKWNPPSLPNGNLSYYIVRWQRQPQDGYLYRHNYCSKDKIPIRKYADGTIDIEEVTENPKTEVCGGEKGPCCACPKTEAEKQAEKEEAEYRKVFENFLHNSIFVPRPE
T1 sequence (P08069 741-1367 partner limits assumed): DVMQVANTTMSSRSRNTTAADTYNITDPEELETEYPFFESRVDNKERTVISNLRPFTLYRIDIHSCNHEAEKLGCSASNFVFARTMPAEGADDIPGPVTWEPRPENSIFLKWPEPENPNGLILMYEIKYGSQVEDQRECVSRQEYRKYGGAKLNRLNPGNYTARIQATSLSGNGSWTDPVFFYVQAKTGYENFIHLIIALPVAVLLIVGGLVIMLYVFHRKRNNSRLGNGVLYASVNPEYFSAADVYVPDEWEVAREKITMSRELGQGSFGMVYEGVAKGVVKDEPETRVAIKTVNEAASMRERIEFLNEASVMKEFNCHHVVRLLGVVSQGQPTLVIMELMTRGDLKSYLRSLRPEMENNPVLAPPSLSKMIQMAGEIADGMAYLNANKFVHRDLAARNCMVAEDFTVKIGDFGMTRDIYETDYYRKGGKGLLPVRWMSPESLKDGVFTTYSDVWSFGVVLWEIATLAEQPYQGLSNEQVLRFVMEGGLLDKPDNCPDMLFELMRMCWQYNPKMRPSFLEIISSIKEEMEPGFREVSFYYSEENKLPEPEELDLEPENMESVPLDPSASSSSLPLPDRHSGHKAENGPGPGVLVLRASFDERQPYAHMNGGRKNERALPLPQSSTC

For `CC[C@H](C)[C@H](NC(=O)CN)C(=O)N[C@H](C(=O)N[C@@H](CC(=O)O)C(=O)N[C@@H](CCC(=O)O)C(=O)N[C@H]1CSSC[C@@H]2NC(=O)[C@H](CO)NC(=O)[C@H](CCCNC(=N)N)NC(=O)[C@H](Cc3ccccc3)NC(=O)[C@H](CSSC[C@H](NC(=O)[C@H](CC(C)C)NC(=O)[C@@H](NC(=O)[C@H](CCC(=O)O)NC(=O)[C@@H]3CCCN3C(=O)CN)[C@@H](C)O)C(=O)NCC(=O)N[C@@H](C)C(=O)N[C@@H](CCC(=O)O)C(=O)N[C@@H](CC(C)C)C(=O)N[C@@H](C(C)C)C(=O)N[C@@H](CC(=O)O)C(=O)N[C@@H](C)C(=O)N[C@@H](CC(C)C)C(=O)N[C@@H](Cc3ccc(O)cc3)C(=O)N[C@@H](CC(C)C)C(=O)N[C@@H](C(C)C)C(=O)N[C@H](C(=O)NCC(=O)N[C@@H](CC(=O)O)C(=O)N[C@@H](CCCNC(=N)N)C(=O)NCC(=O)N[C@@H](Cc3ccccc3)C(=O)N[C@@H](Cc3ccc(O)cc3)C(=O)N[C@@H](Cc3ccccc3)C(=O)N[C@@H](CC(N)=O)C(=O)N[C@@H](CCCCN)C(=O)N3CCC[C@H]3C(=O)N[C@H](C(=O)N[C@@H](CCC(=O)O)C(=O)N[C@@H](CCC(=O)O)C(=O)O)[C@@H](C)O)CSSC[C@@H](C(=O)N[C@@H](C)C(N)=O)NC(=O)[C@H](Cc3ccc(O)cc3)NC(=O)[C@H](CCSC)NC(=O)[C@H](CCC(=O)O)NC(=O)[C@H](CC(C)C)NC(=O)[C@H](CCCNC(=N)N)NC(=O)[C@H](CCCNC(=N)N)NC(=O)[C@H](CC(C)C)NC(=O)[C@H](CC(=O)O)NC2=O)NC1=O)C(C)C` [IGF-1 A:B(E10 Y16L17)-E31E3 2B-COOH], the “% IGF-1 (in test)” value on IGF-1 receptor [1] (Table 9, IGF-1 Receptor) amounted to 3.0%. Moreover, the Ratio on IGF-1 receptor [1] (setting [8]) amounted to 14.3. At insulin receptor [2] (Table 9, Insulin Receptor), the “% insulin (in test)” value amounted to 36.5% and the “% native insulin activity (0.6 nM)” value is given as 50.0%. In addition, the “% Insulin” value at insulin receptor [3] (Table 10, Insulin Receptor) is 18.1% and 31.7%.
`CC[C@H](C)[C@H](NC(=O)CN)C(=O)N[C@H](C(=O)N[C@@H](CC(=O)O)C(=O)N[C@@H](CCC(=O)O)C(=O)N[C@H]1CSSC[C@@H]2NC(=O)[C@H](CO)NC(=O)[C@H](C)NC(=O)[C@H](Cc3c[nH]cn3)NC(=O)[C@H](CSSC[C@H](NC(=O)[C@H](CC(C)C)NC(=O)[C@H](Cc3c[nH]cn3)NC(=O)[C@H](CCC(=O)O)NC(=O)[C@@H]3CCCN3C(=O)CN)C(=O)NCC(=O)N[C@@H](C)C(=O)N[C@@H](CC(=O)O)C(=O)N[C@@H](CC(C)C)C(=O)N[C@@H](C(C)C)C(=O)N[C@@H](CC(=O)O)C(=O)N[C@@H](C)C(=O)N[C@@H](CC(C)C)C(=O)N[C@@H](Cc3ccc(O)cc3)C(=O)N[C@@H](CC(C)C)C(=O)N[C@@H](C(C)C)C(=O)N[C@H](C(=O)NCC(=O)N[C@@H](CC(=O)O)C(=O)N[C@@H](C)C(=O)NCC(=O)N[C@@H](Cc3ccccc3)C(=O)N[C@@H](Cc3ccc(O)cc3)C(N)=O)CSSC[C@@H](C(=O)N[C@@H](CC(N)=O)C(=O)O)NC(=O)[C@H](Cc3ccc(O)cc3)NC(=O)[C@H](CCSC)NC(=O)[C@H](CCC(=O)O)NC(=O)[C@H](CC(C)C)NC(=O)[C@H](CCCNC(=N)N)NC(=O)[C@H](CCCNC(=N)N)NC(=O)[C@H](CC(C)C)NC(=O)[C@H](CC(=O)O)NC2=O)NC1=O)C(C)C`: at IGF-1 receptor [1], the “% IGF-1 (in test)” value is 2.3% and the Ratio amounted to 190.3. The “% insulin (in test)” value on insulin receptor [2] turned out to be 1171.4%. For the same compound, at IGF-1 receptor [4], the “% IGF” value came to 7.7% and the “Selective Ratio” value was 32.54. Further, on insulin receptor [3], the “% Insulin” value is 360% and 614%.
Regarding `CC[C@H](C)[C@H](NC(=O)CN)C(=O)N[C@H](C(=O)N[C@@H](CC(=O)O)C(=O)N[C@@H](CCC(=O)O)C(=O)N[C@H]1CSSC[C@@H]2NC(=O)[C@H](CO)NC(=O)[C@H](C)NC(=O)[C@H](Cc3c[nH]cn3)NC(=O)[C@H](CSSC[C@H](NC(=O)[C@H](CC(C)C)NC(=O)[C@H](Cc3c[nH]cn3)NC(=O)[C@H](CCC(=O)O)NC(=O)[C@@H]3CCCN3C(=O)CN)C(=O)NCC(=O)N[C@@H](C)C(=O)N[C@@H](CC(=O)O)C(=O)N[C@@H](CC(C)C)C(=O)N[C@@H](C(C)C)C(=O)N[C@@H](CC(=O)O)C(=O)N[C@@H](C)C(=O)N[C@@H](CC(C)C)C(=O)N[C@@H](Cc3ccc(O)cc3)C(=O)N[C@@H](CC(C)C)C(=O)N[C@@H](C(C)C)C(=O)N[C@H](C(=O)NCC(=O)N[C@@H](CC(=O)O)C(=O)N[C@@H](CCCNC(=N)N)C(=O)NCC(=O)N[C@@H](Cc3ccccc3)C(=O)N[C@@H](Cc3ccc(O)cc3)C(N)=O)CSSC[C@@H](C(=O)N[C@@H](CC(N)=O)C(=O)O)NC(=O)[C@H](Cc3ccc(O)cc3)NC(=O)[C@H](CCSC)NC(=O)[C@H](CCC(=O)O)NC(=O)[C@H](CC(C)C)NC(=O)[C@H](CCCNC(=N)N)NC(=O)[C@H](CCCNC(=N)N)NC(=O)[C@H](CC(C)C)NC(=O)[C@H](CC(=O)O)NC2=O)NC1=O)C(C)C`, the “% IGF-1 (in test)” value on IGF-1 receptor [1] (Table 9, IGF-1 Receptor) is given as 12.9%. Further, on IGF-1 receptor [1] (setting [8]), the Ratio is 80.6. For the same compound, the “% insulin (in test)” value at insulin receptor [2] (Table 9, Insulin Receptor) was 1576.7% and 1667.0%. Further, the “% IGF” value on IGF-1 receptor [4] (Table 10, IGF-1 Receptor) is listed as 181.395%. In addition, the “% Insulin” value on insulin receptor [3] (Table 10, Insulin Receptor, listed as IGF-1 A (H8 A9 N21) B(H5D10Y16L17) DPI A-COOH) was 840% and 1080%.
By IC80 is commonly meant the point of the concentration-response curve where the effect stands at 80%. As usually defined, the IC50 is the point on the concentration scale where inhibition reaches its midpoint. Low values mean greater potency in that assay, high ones weaker potency in that assay. Regarding `CC[C@H](C)[C@H](NC(=O)CN)C(=O)N[C@H](C(=O)N[C@@H](CC(=O)O)C(=O)N[C@@H](CCC(=O)O)C(=O)N[C@H]1CSSC[C@@H]2NC(=O)[C@H](CO)NC(=O)[C@H](CCCNC(=N)N)NC(=O)[C@H](Cc3ccccc3)NC(=O)[C@H](CSSC[C@H](NC(=O)[C@H](CC(C)C)NC(=O)[C@@H](NC(=O)[C@H](CCC(=O)O)NC(=O)[C@@H]3CCCN3C(=O)CN)[C@@H](C)O)C(=O)NCC(=O)N[C@@H](C)C(=O)N[C@@H](CCC(=O)O)C(=O)N[C@@H](CC(C)C)C(=O)N[C@@H](C(C)C)C(=O)N[C@@H](CC(=O)O)C(=O)N[C@@H](C)C(=O)N[C@@H](CC(C)C)C(=O)N[C@@H](Cc3ccc(O)cc3)C(=O)N[C@@H](CC(C)C)C(=O)N[C@@H](C(C)C)C(=O)N[C@H](C(=O)NCC(=O)N[C@@H](CC(=O)O)C(=O)N[C@@H](CCCNC(=N)N)C(=O)NCC(=O)N[C@@H](Cc3ccccc3)C(=O)N[C@@H](Cc3ccc(O)cc3)C(=O)N[C@@H](Cc3ccccc3)C(=O)N[C@@H](CC(N)=O)C(=O)N[C@@H](CCCCN)C(=O)N3CCC[C@H]3C(=O)N[C@H](C(N)=O)[C@@H](C)O)CSSC[C@@H](C(=O)N[C@@H](C)C(N)=O)NC(=O)[C@H](Cc3ccc(O)cc3)NC(=O)[C@H](CCSC)NC(=O)[C@H](CCC(=O)O)NC(=O)[C@H](CC(C)C)NC(=O)[C@H](CCCNC(=N)N)NC(=O)[C@H](CCCNC(=N)N)NC(=O)[C@H](CC(C)C)NC(=O)[C@H](CC(=O)O)NC2=O)NC1=O)C(C)C` [IGF-1 A:B(E10Y16L17)], on IGF-1 receptor [1] (Table 9, IGF-1 Receptor), the “% IGF-1 (in test)” value was 6.8% and 5.0%; the IC80 is 12.2 nM. Moreover, the Ratio on IGF-1 receptor [1] (setting [8]) is on record as 11.9. The half-maximal inhibitory concentration (IC50) on insulin receptor [2] (IC50:) was 0.51 nM. Moreover, at insulin receptor [2] (Table 9, Insulin Receptor), the “% insulin (in test)” value was 58.7% and 98.8%; the “% native insulin activity (0.6 nM)” value was 90.9% and 117.6%. At IGF-1 receptor [4] (Table 10, IGF-1 Receptor), the “% IGF” value turned out to be 13%. Besides, the “% Insulin” value on insulin receptor [3] (Table 10, Insulin Receptor) is recorded as 49.2%.
For “C8-PEG20K B^1(H5,Y16,L17)25-PEG8-K-PEG4-A^1(N18,N21) (GPEHLCGAELVDALYLVCGDRGFY[PEG8′]K(PEG 20 kDa)[PEG4′]GIVDECCFRSCDLRRLENYCN; ends and bridges not checked) [#38]”, the “Phosphorylation (EC50) % IR-B” value in assay [5] was found to be 2.0%. Besides, in assay [6] (Table 12), the “% Insulin Activity IR-A” value is reported as 14.8%. Moreover, the “Phosphorylation (EC50) % IR-A” value in assay [6] (Table 17) was found to be 14.8%. For the same compound, the “agonist character at the insulin receptor (type A)” value in assay [6] (result in words) is given as “full agonist”. This compound came in with a duration of action in assay [7] of 24 h.
Regarding `CC[C@H](C)[C@H](NC(=O)CN)C(=O)N[C@H](C(=O)N[C@@H](CC(=O)O)C(=O)N[C@@H](CCC(=O)O)C(=O)N[C@H]1CSSC[C@@H]2NC(=O)[C@H](CO)NC(=O)[C@H](CCCNC(=N)N)NC(=O)[C@H](Cc3ccccc3)NC(=O)[C@H](CSSC[C@H](NC(=O)[C@H](CC(C)C)NC(=O)[C@@H](NC(=O)[C@H](CCC(=O)O)NC(=O)[C@@H]3CCCN3C(=O)CN)[C@@H](C)O)C(=O)NCC(=O)N[C@@H](C)C(=O)N[C@@H](CC(=O)O)C(=O)N[C@@H](CC(C)C)C(=O)N[C@@H](C(C)C)C(=O)N[C@@H](CC(=O)O)C(=O)N[C@@H](C)C(=O)N[C@@H](CC(C)C)C(=O)N[C@@H](Cc3ccc(O)cc3)C(=O)N[C@@H](CC(C)C)C(=O)N[C@@H](C(C)C)C(=O)N[C@H](C(=O)NCC(=O)N[C@@H](CC(=O)O)C(=O)N[C@@H](CCCNC(=N)N)C(=O)NCC(=O)N[C@@H](Cc3ccccc3)C(=O)N[C@@H](Cc3ccc(O)cc3)C(N)=O)CSSC[C@@H](C(=O)N[C@@H](C)C(=O)O)NC(=O)[C@H](Cc3ccc(O)cc3)NC(=O)[C@H](CCSC)NC(=O)[C@H](CCC(=O)O)NC(=O)[C@H](CC(C)C)NC(=O)[C@H](CCCNC(=N)N)NC(=O)[C@H](CCCNC(=N)N)NC(=O)[C@H](CC(C)C)NC(=O)[C@H](CC(=O)O)NC2=O)NC1=O)C(C)C` [IGF-1 A:B(D10Y16L17) DPI A-COOH], the “% IGF-1 (in test)” value on IGF-1 receptor [1] (Table 9, IGF-1 Receptor) was 7.7%. Besides, at IGF-1 receptor [4] (Table 10, IGF-1 Receptor), the “% IGF” value was 111.538%. In addition, the “% Insulin” value at insulin receptor [3] (Table 10, Insulin Receptor) amounted to 1575%.
